Assay results reported in ChEMBL document CHEMBL4396971, “Discovery of potent and orally bioavailable indazole-based glucagon receptor antagonists for the treatment of type 2 diabetes” (Bioorg Med Chem Lett, 2019).

Test system: not listed separately
Assay: Stability in human liver microsomes assessed as parent compound remaining at 1 uM incubated for 10 mins
Format: ADME, Microsome
Settings: read-out: Stability

| remaining at 10 min, 1 µM | SMILES |
| --- | --- |
| 95% | COc1c(-c2ccc(C(F)(F)F)cc2C)ccc2c1cnn2[C@@H](CC(C)C)c1ccc(C(=O)NCCC(=O)O)cc1 |
| 116% | COc1c(-c2ccc(C(F)(F)F)cc2Cl)ccc2nn([C@H](CC(C)C)c3ccc(C(=O)NCCC(=O)O)cc3)cc12 |

Test system: not listed separately
Assay: Stability in mouse liver microsomes assessed as parent compound remaining at 1 uM incubated for 10 mins
Format: ADME, Microsome
Settings: liver microsomes, read-out: Stability

| remaining at 10 min, 1 µM | SMILES |
| --- | --- |
| 83% | COc1c(-c2ccc(C(F)(F)F)cc2C)ccc2c1cnn2[C@@H](CC(C)C)c1ccc(C(=O)NCCC(=O)O)cc1 |
| 76% | COc1c(-c2ccc(C(F)(F)F)cc2Cl)ccc2nn([C@H](CC(C)C)c3ccc(C(=O)NCCC(=O)O)cc3)cc12 |

Test system: not listed separately
Assay: Stability in rat liver microsomes assessed as parent compound remaining at 1 uM incubated for 10 mins
Format: ADME, Microsome
Settings: read-out: Stability

| remaining at 10 min, 1 µM | SMILES |
| --- | --- |
| 81% | COc1c(-c2ccc(C(F)(F)F)cc2C)ccc2c1cnn2[C@@H](CC(C)C)c1ccc(C(=O)NCCC(=O)O)cc1 |
| 100% | COc1c(-c2ccc(C(F)(F)F)cc2Cl)ccc2nn([C@H](CC(C)C)c3ccc(C(=O)NCCC(=O)O)cc3)cc12 |

Test system: not listed separately
Assay: Stability in dog liver microsomes assessed as parent compound remaining at 1 uM incubated for 10 mins
Format: ADME, Canis lupus familiaris, Microsome
Settings: liver microsomes, read-out: Stability

| remaining at 10 min, 1 µM | SMILES |
| --- | --- |
| 69% | COc1c(-c2ccc(C(F)(F)F)cc2C)ccc2c1cnn2[C@@H](CC(C)C)c1ccc(C(=O)NCCC(=O)O)cc1 |
| 79% | COc1c(-c2ccc(C(F)(F)F)cc2Cl)ccc2nn([C@H](CC(C)C)c3ccc(C(=O)NCCC(=O)O)cc3)cc12 |

Molecular target: Glucagon receptor (Homo sapiens, UniProt P47871)
Assay: Potency index, ratio of Ki of 3-(4-((1R)-1-(4-methoxy-5-(2-methyl-4-(trifluoromethyl)phenyl)-1H-indazol-1-yl)-3-methylbutyl)benzamido)propanoic acid to Ki of compound for human full length GCGR transfected in HEK293 cells assessed as reduction in glucagon-induced cAMP response by LANCE TR-FRET assay
Format: functional, cell-based
Settings: not given

Chain of Glucagon receptor (P47871 whole entry): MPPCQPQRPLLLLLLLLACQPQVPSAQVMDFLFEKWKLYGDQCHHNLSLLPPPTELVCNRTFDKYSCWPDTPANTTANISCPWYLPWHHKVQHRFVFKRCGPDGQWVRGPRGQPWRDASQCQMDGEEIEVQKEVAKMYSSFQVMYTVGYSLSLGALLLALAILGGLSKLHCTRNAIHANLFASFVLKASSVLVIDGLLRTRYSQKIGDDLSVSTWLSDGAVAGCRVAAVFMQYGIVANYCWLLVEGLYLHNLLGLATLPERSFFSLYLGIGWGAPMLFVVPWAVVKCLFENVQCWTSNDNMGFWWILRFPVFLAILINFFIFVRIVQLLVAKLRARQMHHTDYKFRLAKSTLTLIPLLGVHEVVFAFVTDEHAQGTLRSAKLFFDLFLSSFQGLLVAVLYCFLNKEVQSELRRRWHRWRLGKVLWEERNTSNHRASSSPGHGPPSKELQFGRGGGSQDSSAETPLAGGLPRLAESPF

| Ratio Ki | SMILES |
| --- | --- |
| 84 | COc1c(-c2ccc(C(F)(F)F)cc2C)ccc2c1cnn2[C@@H](CC(C)C)c1ccc(C(=O)NCCC(=O)O)cc1 |
